Source: paper PMC5438088 (ChemMedChem, 2015)
Values joined by “and” are separate entries in the source; they are usually repeats but may differ in a detail not shown here. Identical values can stand only once. Like-named read-outs stand apart in the source and are kept apart here.

Key:
[1] = biological target: T1, hcSHMT (Homo sapiens, UniProt P34896); type: binding
T1 sequence (P34896 1-483): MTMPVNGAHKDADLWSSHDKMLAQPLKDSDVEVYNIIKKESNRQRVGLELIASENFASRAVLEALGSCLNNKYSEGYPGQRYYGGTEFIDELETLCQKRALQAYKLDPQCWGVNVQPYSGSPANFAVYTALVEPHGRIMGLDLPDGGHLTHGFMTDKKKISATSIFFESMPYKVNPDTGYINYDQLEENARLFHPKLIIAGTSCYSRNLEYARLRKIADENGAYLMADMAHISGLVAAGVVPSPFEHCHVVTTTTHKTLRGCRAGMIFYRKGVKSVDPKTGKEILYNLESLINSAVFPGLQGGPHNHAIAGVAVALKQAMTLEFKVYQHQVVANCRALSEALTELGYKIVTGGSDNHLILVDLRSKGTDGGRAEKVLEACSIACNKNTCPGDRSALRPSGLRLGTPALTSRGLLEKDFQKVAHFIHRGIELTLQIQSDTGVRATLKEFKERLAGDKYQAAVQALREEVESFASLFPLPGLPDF

[2] = biological target: T1, hcSHMT; test: Isothermal titration calorimetry; type: binding; conditions: ITC, 25°C, 10 mM glycine
[3] = tested on: SHMT; conditions: cited from earlier work

In the case of `Nc1nc2c(c(=O)[nH]1)C[C@@H](CCc1ccc(C(=O)N[C@@H](CCC(=O)O)C(=O)O)cc1)CN2` [Lometrexol], the inhibition mechanism ([1]; with respect to leucovorin, double reciprocal plot) is reported as “competitive inhibitor”, the “ΔH (heat of binding)” value [2] is reported as 3.50 ± 0.06 kcal/mol and the ΔS [2] is reported as 38.0 cal mol^−1/deg. The “n (binding stoichiometry)” value ([2]; listed as LTX) was 0.53±0.05 and the Kd [2] was 2000 nM and 1990 nM.

In the case of `Nc1nc2[nH]cc(CCc3ccc(C(=O)N[C@@H](CCC(=O)O)C(=O)O)cc3)c2c(=O)[nH]1` [Pemetrexed, (S)-2-[4-[2-(4-amino-2-oxo-3,5,7-triazabicyclo[4.3.0]nona-3,8,10-trien-9-yl)ethyl]benzoyl] aminopentanedioic acid], the “inhibition of hcSHMT” value ([3]; hcSHMT) is listed as “low micromolar inhibitor”.

For `CC1(C)N=C(N)N=C(N)N1c1ccc(CCCCc2ccc(S(=O)(=O)F)cc2Cl)c(Cl)c1.CCS(=O)(=O)O` [NSC127755], the “inhibition of SHMT” value [3] is listed as “irreversible inhibitor”.

For `Nc1nc2c(c(=O)[nH]1)N(C=O)C(CNc1ccc(C(=O)N[C@@H](CCC(=O)O)C(=O)O)cc1)CN2` (stereo partly shown) [Leucovorin, 5-formyltetrahydrofolate], the Kd [1] was 1500 nM, the “n (binding stoichiometry)” value [2] was 0.51±0.03 and the “ΔH (heat of binding)” value [2] was 4.64 ± 0.39 kcal/mol. For the same molecule, the ΔS [2] was 42.4 cal mol^−1/deg, the Kd [2] was 1360 ± 490 nM and the “inhibition of SHMT” value ([3]; both SHMT isoforms) was “potent, low-micromolar inhibitor”.
